Some results are limits rather than exact numbers.

Assay [1] has as its target T1, His tagged PTPN2 (TC45) protein (Homo sapiens, UniProt P17706).
T1 construct: made in house
T1 sequence (P17706 with tags, fused parts or gaps isoform P17706-2): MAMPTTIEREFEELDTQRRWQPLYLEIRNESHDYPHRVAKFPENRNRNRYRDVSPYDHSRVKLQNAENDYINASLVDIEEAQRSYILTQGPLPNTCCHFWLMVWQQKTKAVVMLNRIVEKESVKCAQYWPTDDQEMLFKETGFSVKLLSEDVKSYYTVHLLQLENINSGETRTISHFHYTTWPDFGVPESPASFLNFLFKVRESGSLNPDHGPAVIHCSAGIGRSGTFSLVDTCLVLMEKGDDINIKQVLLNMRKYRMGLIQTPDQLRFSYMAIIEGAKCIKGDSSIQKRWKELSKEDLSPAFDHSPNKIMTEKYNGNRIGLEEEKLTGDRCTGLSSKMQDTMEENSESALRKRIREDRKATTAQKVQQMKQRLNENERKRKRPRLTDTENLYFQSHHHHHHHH
The assay is described as follows: Mobility shift assay used to determine potency of PTPN2 inhibitors. Conditions: enzyme 0.5 nM, substrate 2 μM; read-out: PTPN2 MSA IC50. It is filed as biochemical. The protocol:
Example 227: Mobility Shift Assay Used to Determine Potency of PTPN2 Inhibitors
Compound activity was determined using in house His tagged PTPN2 (TC45) protein (SEQ ID NO: 1) in an in vitro enzymatic reaction. The enzymatic assay used to determine activity was a mobility shift assay using a LabChip EZ Reader by Caliper Life Sciences. The enzymatic reaction was carried out in assay buffer (50 mM HEPES pH 7.5, 1 mM EGTA, 10 mM EDTA, 0.01% Tween® 20, and 2 mM DTT). The compounds were dispensed on a white 384 well ProxiPlate™ (PerkinElmer Catalog #6008289) plate using the Labcyte Echo at varying concentrations (12 point, 1:3 dilution). The enzyme (at 0.5 nM) was incubated with compound for 10 minutes at room temperature. Then the substrate (phosphorylated insulin receptor probe sequence: ((OG488)-(NH—CH2—CH2—O—CH2—CH2—O—CH2—CO)-T-R-D-I-(PY)-E-T-D-Y-Y-R-K-K-NH2) (SEQ ID NO: 2) was added at 2 μM to the plates and incubated for another 10 minutes at room temperature. Finally, a quench solution (water and 4-bromo-3-(2-oxo-2-propoxyethoxy)-5-(3-{[1-(phenylmethanesulfonyl)piperidin-4-yl]amino}phenyl)thiophene-2-carboxylic acid) was added to the plates, which were then run on the EZ Reader (excitation 488 nm, emission 530 nm) to measure % conversion (the amount of phosphorylated substrate which was de-phosphorylated by PTPN2). […] The % inhibition was then used to calculate the IC50 values.

The target of assay [2] is T2, His tagged full-length PTPN1 protein (Homo sapiens, UniProt P18031).
T2 construct: made in house
T2 sequence (P18031 with tags, fused parts or gaps): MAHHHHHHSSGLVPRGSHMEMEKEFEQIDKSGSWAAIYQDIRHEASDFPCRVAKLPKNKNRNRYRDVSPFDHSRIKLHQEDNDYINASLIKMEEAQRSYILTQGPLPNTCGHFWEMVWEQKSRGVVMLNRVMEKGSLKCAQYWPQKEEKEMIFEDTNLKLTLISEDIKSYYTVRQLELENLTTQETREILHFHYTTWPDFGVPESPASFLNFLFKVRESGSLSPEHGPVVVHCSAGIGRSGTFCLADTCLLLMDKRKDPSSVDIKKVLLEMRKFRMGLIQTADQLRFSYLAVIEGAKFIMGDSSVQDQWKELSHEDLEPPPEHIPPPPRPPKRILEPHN
The assay is described as follows: Mobility shift assay (MSA) used to determine potency of PTPN1 inhibitors. It is filed as biochemical. The note with it: enzyme 0.5 nM, substrate 2 μM. The protocol: Example 228: Mobility Shift Assay (MSA) Used to Determine Potency of PTPN1 Inhibitors
Compound activity was determined using in house His tagged full-length PTPN1 protein (SEQ ID NO: 3) in an in vitro enzymatic reaction. The enzymatic assay used to determine activity is a mobility shift assay using a LabChip EZ Reader by Caliper Life Sciences. The enzymatic reaction was carried out in assay buffer (50 mM HEPES pH 7.5, 1 mM EGTA, 10 mM EDTA, 0.01% Tween® 20, and 2 mM DTT). The compounds were dispensed on a white 384 well ProxiPlate™ (PerkinElmer Cat^# 6008289) plate using a Labcyte Echo® liquid handler at varying concentrations (12 point, 1:3 dilution). The enzyme (at 0.5 nM) was incubated with compound for 10 minutes at room temperature. Then the substrate (phosphorylated insulin receptor probe sequence: ((OG488)-(NH—CH2—CH2—O—CH2—CH2—O—CH2—CO)-T-R-D-I-(PY)-E-T-D-Y-Y-R-K-K-NH2) (SEQ ID NO: 2) was added at 2 μM to the plates and incubated for another 10 minutes at room temperature. Finally, a quench solution (water and 4-bromo-3-(2-oxo-2-propoxyethoxy)-5-(3-{[1-(phenylmethanesulfonyl)piperidin-4-yl]amino}phenyl)thiophene-2-carboxylic acid) was added to the plates, which were then run on the EZ Reader (excitation 488 nm, emission 530 nm) to measure % conversion (the amount of phosphorylated substrate which was de-phosphorylated by PTPN1). […] The % inhibition was then used to calculate the IC50 values.

Turning to `CC(C)CCOC1CCc2c(cc(O)c(N3CC(=O)NS3(=O)=O)c2F)C1` (stereo not drawn) [Compound 314, 5-[1-fluoro-3-hydroxy-6-(3-methylbutoxy)-5,6,7,8-tetrahydronaphthalen-2-yl]-1λ^6,2,5-thiadiazolidine-1,1,3-trione], the half-maximal inhibitory concentration (IC50) in assay [1] was 10 to 100 nM; in assay [2], over 100 nM.
For `O=C1CN(c2c(O)cc3c(c2F)CCC(OCCCC(F)F)C3)S(=O)(=O)N1` (stereo not drawn) [Compound 312, 5-[6-(4,4-difluorobutoxy)-1-fluoro-3-hydroxy-5,6,7,8-tetrahydronaphthalen-2-yl]-1λ^6,2,5-thiadiazolidine-1,1,3-trione] the same measures were 10 to 100 nM and 10 to 100 nM.
For `CC(C)(O)CCNC1CCc2c(cc(O)c(N3CC(=O)NS3(=O)=O)c2F)C1` (stereo not drawn) [Compound 315, 5-{1-fluoro-3-hydroxy-6-[(3-hydroxy-3-methylbutyl)amino]-5,6,7,8-tetrahydronaphthalen-2-yl}-1λ^6,2,5-thiadiazolidine-1,1,3-trione] the same measures were 1 to 10 nM and 10 to 100 nM.
In the case of `CC(C)CCNC1CCc2c(cc(O)c(N3CC(=O)NS3(=O)=O)c2F)C1` (stereo not drawn) [Compound 313, 5-{1-fluoro-3-hydroxy-6-[(3-methylbutyl)amino]-5,6,7,8-tetrahydronaphthalen-2-yl}-1λ^6,2,5-thiadiazolidine-1,1,3-trione], the 50% inhibitory concentration (IC50) in assay [1] fell in the range of 1 to 10 nM; in assay [2], 10 to 100 nM.
For `CC(F)(F)CNC1CCc2cc(O)c(N3CC(=O)NS3(=O)=O)c(F)c2C1` (stereo not drawn) [Compound 132, 5-{7-[(2,2-difluoropropyl)amino]-1-fluoro-3-hydroxy-5,6,7,8-tetrahydronaphthalen-2-yl}-1λ^6,2,5-thiadiazolidine-1,1,3-trione] the same measures were 10 to 100 nM and 10 to 100 nM.
`CC(C)[C@@H]1CN(C2CCc3cc(O)c(N4CC(=O)NS4(=O)=O)c(F)c3C2)CCO1` (stereo partly drawn) [Compound 182, 5-{1-fluoro-3-hydroxy-7-[(2R)-2-(propan-2-yl)morpholin-4-yl]-5,6,7,8-tetrahydronaphthalen-2-yl}-1λ^6,2,5-thiadiazolidine-1,1,3-trione]: the 50% inhibitory concentration (IC50) in assay [1] and in assay [2] was 10 to 100 nM throughout.
For `O=C1CN(c2c(O)cc3c(c2F)CN(CC2CCCN2)CC3)S(=O)(=O)N1` (stereo not drawn) [Compound 183, 5-{8-fluoro-6-hydroxy-2-[(pyrrolidin-2-yl)methyl]-1,2,3,4-tetrahydroisoquinolin-7-yl}-1λ^6,2,5-thiadiazolidine-1,1,3-trione], the IC50 in assay [1] and in assay [2] was over 100 nM throughout.
As for `CC(Cc1ccc(C(C)C)cc1)CN1CCc2cc(O)c(N3CC(=O)NS3(=O)=O)c(F)c2C1` (stereo not drawn) [Compound 295, 5-(8-fluoro-6-hydroxy-2-{2-methyl-3-[4-(propan-2-yl)phenyl]propyl}-1,2,3,4-tetrahydroisoquinolin-7-yl)-1λ^6,2,5-thiadiazolidine-1,1,3-trione], the IC50 in assay [1] was 10 to 100 nM; in assay [2], over 100 nM.
On to `O=C1CN(c2c(O)cc3c(c2F)CC(CNCCCC2CC2)C3)S(=O)(=O)N1` (stereo not drawn) [Compound 274, 5-(2-{[(3-cyclopropylpropyl)amino]methyl}-4-fluoro-6-hydroxy-2,3-dihydro-1H-inden-5-yl)-1λ^6,2,5-thiadiazolidine-1,1,3-trione], for which the half-maximal inhibitory concentration (IC50) in assay [1] and in assay [2] was 1 to 10 nM in each case.
Regarding `CC(C)(C)OC(=O)NCCOC1CCc2c(cc(O)c(N3CC(=O)NS3(=O)=O)c2F)C1` (stereo not drawn) [Compound 316, tert-butyl (2-{[5-fluoro-7-hydroxy-6-(1,1,4-trioxo-1λ^6,2,5-thiadiazolidin-2-yl)-1,2,3,4-tetrahydronaphthalen-2-yl]oxy}ethyl)carbamate], the IC50 in assay [1] is 10 to 100 nM; in assay [2] it was over 100 nM.
For `CC(O)CCOC(=O)N1Cc2c(cc(O)c(N3CC(=O)NS3(=O)=O)c2F)C(F)(F)C1` (stereo not drawn) [Compound 304, 3-hydroxybutyl 4,4,8-trifluoro-6-hydroxy-7-(1,1,4-trioxo-1λ^6,2,5-thiadiazolidin-2-yl)-3,4-dihydroisoquinoline-2(1H)-carboxylate] the same measures were over 100 nM and over 100 nM.
For `Cc1noc(C)c1CNC1CCc2cc(O)c(N3CC(=O)NS3(=O)=O)c(F)c2C1` (stereo not drawn) [Compound 287, 5-(7-{[(3,5-dimethyl-1,2-oxazol-4-yl)methyl]amino}-1-fluoro-3-hydroxy-5,6,7,8-tetrahydronaphthalen-2-yl)-1λ^6,2,5-thiadiazolidine-1,1,3-trione] the same measures were 10 to 100 nM and over 100 nM.
For `C=CCC1(N)CCc2cc(O)c(N3CC(=O)NS3(=O)=O)c(F)c2C1` (stereo not drawn) [Compound 240, 5-[7-amino-1-fluoro-3-hydroxy-7-(prop-2-en-1-yl)-5,6,7,8-tetrahydronaphthalen-2-yl]-1λ^6,2,5-thiadiazolidine-1,1,3-trione] the same measures were 10 to 100 nM and over 100 nM.
On to `O=C1CN(c2c(O)cc3c(c2F)CC(NCCC2CC2)CC3)S(=O)(=O)N1` (stereo not drawn) [Compound 101, 5-{7-[(2-cyclopropylethyl)amino]-1-fluoro-3-hydroxy-5,6,7,8-tetrahydronaphthalen-2-yl}-1λ^6,2,5-thiadiazolidine-1,1,3-trione], for which the IC50 in assay [1] and in assay [2] was 1 to 10 nM throughout.
As for `COC1CCc2c(cc(O)c(N3CC(=O)NS3(=O)=O)c2F)C1` (stereo not drawn) [Compound 317, 5-(1-fluoro-3-hydroxy-6-methoxy-5,6,7,8-tetrahydronaphthalen-2-yl)-1λ^6,2,5-thiadiazolidine-1,1,3-trione], the IC50 was 10 to 100 nM in assay [1] and over 100 nM in assay [2].
For `O=C1CN(c2c(O)cc3c(c2F)CC(NCCN2CCC2)CC3)S(=O)(=O)N1` (stereo not drawn) [Compound 115, 5-(7-{[2-(azetidin-1-yl)ethyl]amino}-1-fluoro-3-hydroxy-5,6,7,8-tetrahydronaphthalen-2-yl)-1λ^6,2,5-thiadiazolidine-1,1,3-trione] the same measures were 10 to 100 nM and 10 to 100 nM.
For `O=C1CN(c2c(O)cc3c(c2F)CCC(NCC2CC2)C3)S(=O)(=O)N1` (stereo not drawn) [Compound 318, 5-{6-[(cyclopropylmethyl)amino]-1-fluoro-3-hydroxy-5,6,7,8-tetrahydronaphthalen-2-yl}-1λ^6,2,5-thiadiazolidine-1,1,3-trione] the same measures were 1 to 10 nM and 10 to 100 nM.
For `COC1CCc2c(F)c(O)c(N3CC(=O)NS3(=O)=O)c(F)c2C1` (stereo not drawn) [Compound 114, 5-(1,4-difluoro-3-hydroxy-7-methoxy-5,6,7,8-tetrahydronaphthalen-2-yl)-1λ^6,2,5-thiadiazolidine-1,1,3-trione] the same measures were 10 to 100 nM and 10 to 100 nM.

The record behind these values is patent US10851073B2, “Protein tyrosine phosphatase inhibitors and methods of use thereof” (Calico Life Sciences LLC, priority 2019, dated 2020).
